From US7691594B2, “Anticancer agent” (Fujifilm Corporation, priority 2006, dated 2010)

Assays:
[1] = system: messenger RNA of PCDH20 gene in ABC-1 cells; test: RT-PCR of PCDH20 gene messenger RNA expression after inhibitor treatment, ABC-1 cells; format: cell-based, human
Procedure: (§1) Specifically, the results were obtained by adding either 5-aza-deoxycytidine (5-aza-dCyd) serving as a DNA methyltransferase inhibitor to each cell type at concentrations of 5 or 10 μM for 5 days and/or trichostatin A (TSA) serving as a non-specific inhibitory substance for histone deacetylase to each cell type at concentrations of […] or […] for 12 hours before cell harvest during culture, and then carrying out RT-PCR, followed by comparison of the expression levels of PCDH20 gene messenger RNA via electrophoresis. The expression level of GAPDH was used as a control in RT-PCR.
(§2) Cell lines used herein were squamous cell lines EBC-1, LK-2, PC10, VMRC-LCP, LC-1sq, and ACC-LC-73; adenocarcinoma cell lines 11-18, A549, ABC-1, RERF-LC-OK, VMRC-LCD, SK-LC-3, and RERF-LC-KJ; and large cell carcinoma cell lines KNS-62, 86-2, LU65, PC-13, ACC-LC-33, NCI-H460, and LU99A. As lung cancer samples derived from clinical specimens, paraffin-embedded samples derived from 53 types of adenocarcinoma and rapidly-frozen samples derived from 59 types of adjacent normal site were used. Cancer samples derived from clinical specimens were obtained from the National Cancer Center, Hokushin General Hospital of Nagano Prefectural Welfare Federation and used under agreement with each patient and approval of the ethical committee of each organization. […]

[2] = system: messenger RNA of PCDH20 gene in LU65 cells; test: RT-PCR of PCDH20 gene messenger RNA expression after inhibitor treatment, LU65 cells; format: cell-based, human
Procedure: as §1, §2

[3] = 5-aza-dCyd 5 μM and 10 μM for 5 days, GAPDH control
[4] = TSA 100 ng/ml for 12 hours before harvest together with 5-aza-dCyd

| Compound | expression level of messenger RNA of PCDH20 gene (RT-PCR) [1, 3] | expression level of messenger RNA of PCDH20 gene (RT-PCR) [2, 3] | expression level of messenger RNA of PCDH20 gene (RT-PCR), combination [1, 4] | expression level of messenger RNA of PCDH20 gene (RT-PCR), combination [2, 4] |
| --- | --- | --- | --- | --- |
| Nc1ncn([C@H]2C[C@H](O)[C@@H](CO)O2)c(=O)n1 [5-aza-deoxycytidine] | transcription suppression was canceled | transcription suppression was canceled | – | – |
| CC(/C=C/C(=O)NO)=C\[C@@H](C)C(=O)c1ccc(N(C)C)cc1 [trichostatin A] | – | – | elevated synergistically | elevated synergistically |
